Structures can show the parent of a compound that is named as a salt.
System: Burkholderia andropogonis
Experiment: Absorbent disc test on a bacterial lawn on agar (kill zone)
Format: cell-based
Details: intermediate concentration tested; absorbent discs on bacterial lawn
Description: To determine the sensitivity of Burkholderia andropogonis, a stock was applied to commercially prepared agar-containing Petri dishes to provide dishes containing a lawn of bacteria. Then, absorbent discs containing a mixture of oxytetracycline hydrochloride and copper oxychloride, and each of the active ingredients separately, oxytetracycline hydrochloride alone and copper oxychloride alone were placed onto the bacterial lawn. The concentrations of the individual active agents in the discs were the same as that for each found in the combination. The combination and the individual actives were tested at three different concentrations. Each concentration was run in triplicate.
An analogous commercially available system for making routine determinations of bacterial and fungal sensitivity also was used.
The toxicity at each concentration was far greater than the sum of the toxicities of each active agent alone, for example, at the intermediate concentration tested, the bacteria kill zone for oxytetracycline was 3.3 mm in diameter; for copper oxychloride, the zone was 2 mm in diameter; but for the combination, the kill zone was 15 mm in diameter.

Structure (SMILES)	bacteria kill zone in diameter
[Cl-].[Cu+2].[Cu+2].[OH-].[OH-].[OH-] [copper oxychloride]	2 mm
CN(C)[C@@H]1C(O)=C(C(N)=O)C(=O)[C@@]2(O)C(O)=C3C(=O)c4c(O)cccc4[C@@](C)(O)[C@H]3[C@H](O)[C@@H]12 [oxytetracycline hydrochloride]	3.3 mm

Source: patent US20080160059A1, “ANTIBIOTIC/ANTIMYCOTIC PREPARATION AND USE IN PLANTS” (priority 2006, published 2008)
